In patent publication US11304907B2, “Pharmaceutical compositions containing a DGAT1 inhibitor” (Novartis AG, priority 2010, dated 2022):
Where a name gives a salt, the structure may show the parent alone.

What was measured:
[1] = Physicochemical properties of the drug substance
Text: However, the compound of formula (I), or a pharmaceutically acceptable salt thereof, in particular the sodium salt thereof, is a drug substance which is difficult to formulate due to its physicochemical properties. […] It is also plate like, very fluffy, and sticky in nature.

[2] = Disintegrant compatibility / stress storage; format: physicochemical; conditions: due to the presence of residual formaldehyde
Experimental: It can be seen from the above table that core tablets formulated with Cross linked polyvinyl pyrollidone (PVP-XL) show a slower release compared to the Sodium Starch Glycollate (SSG), and Croscarmellose Sodium (Ac-Di-Sol) based formulations. […] Formulations containing Croscarmellose Sodium (Ac-Di-Sol) were also found to turn to yellow when prepared and exposed to 50° C. dry as well as 50° C./75% […] humidity for 4 weeks.

## O=C(O)C[C@H]1CC[C@H](c2ccc(-c3ccc(Nc4ccc(C(F)(F)F)nc4)cn3)cc2)CC1 [compound of formula (II), trans-(4-{4-[5-(6-Trifluoromethyl-pyridin-3-ylamino)-pyridin-2-yl]-phenyl}-cyclohexyl)-acetic acid, sodium salt]
[1]; at 95% relative humidity
  moisture uptake: high moisture uptake
[1]; drug substance, sodium salt
  hygroscopicity: hygroscopic
  solubility: poorly soluble
[2]
  compatibility with Cross linked polyvinyl pyrollidone (PVP-XL): incompatible
